This is an account of results in patent publication US9073893B2, “3-Oxo-2,3-dihydro-1H-indazole-4-carboxamide derivatives as PARP-1 inhibitors” (priority 2011, dated 2015).

The structures appear in SMILES notation.

The AUC is the area under the concentration-time curve, a measure of exposure. Lower therefore signals low exposure. What is called Kd is the constant that tells how readily two partners part at equilibrium. A word on the IC50: it is the midpoint of a concentration-inhibition curve.

Data set [1] in a line: Pharmacokinetics and oral bioavailability in the mouse. In kind it is in vivo. The note with it: for clearance / Vd / AUC / half-life: male, Balb, Nu/Nu, plasma; for clearance / Vd: IV bolus 10 mg/kg; for clearance / Vd / AUC / half-life / C-max (oral): mean; for clearance: read-out: CL (IV bolus); for Vd: read-out: Vdss (IV bolus); for AUC / half-life / C-max (oral): oral 10 mg/kg; for half-life: read-out: T½ (oral) (converted); for F on AUC: oral vs IV dose-normalized AUC, 10 mg/kg.
Experimental: A single administration at the dose of 10 mg/kg was given and three male animals for each route were used. […] After capping and vortex mixing, the plate was centrifuged for 15 minutes at 4000 rpm. The supernatant was considered as final extract and injected onto the LC-MS-MS system (UPLC system: Waters Acquity using BEH C18 50*2.1 mm 1.7 μm analytical column; MS instrument: Waters TQD equipped with Electro-Spray source operating in positive ion mode). Lower limit of quantification is 5.0 ng/mL, upper limit of quantification is 5000 ng/mL. Non-compartmental method (linear trapezoidal rule and linear regression analysis of natural log-transformed plasma concentrations vs. time data) was used. Absolute bioavailability (F) was calculated from the ratio of average oral to IV (intravenous) dose-normalized plasma AUC (area under curve) values.

The target of a further data set is PARP-3 (Homo sapiens (Human), UniProt Q9Y6F1). Particulars: probe P1; for DC50: read-out: PARP-3 (DC50 μM); for Kd: read-out: PARP-3 (Kd μM).
Another data set concerns the target PARP-2 (Homo sapiens (Human), UniProt Q9UGN5). Particulars: probe P1; for DC50: read-out: PARP-2 (DC50 μM); for Kd: read-out: PARP-2 (Kd μM).
In another data set the target is PARP-1 (Homo sapiens (Human), UniProt P09874). The note with it: for DC50: read-out: PARP-1 (DC50 μM), probe P1, <0.25 = assay sensitivity limit; for Kd: read-out: PARP-1 (Kd μM), probe P3, <0.01 = assay sensitivity limit.
Data set [2] relates to hydrogen peroxide induced PAR formation in HeLa cells. The experiment in a line: cells. The note with it: Homo sapiens, read-out: PAR assay (IC50 μM).
Experimental: Cellular activity of PARP-1 inhibitors was assessed by measuring the inhibition of the hydrogen peroxide induced PAR formation in HeLa cells (ECACC). Cellular PAR levels were measured by immunocytochemistry, and quantified using an ArrayScan vTi instrument (Cellomics Thermo Scientific).
Studies were performed as follows: 6000 cells/well were seeded in 96 well plates (Perkin Elmer) in MEM/10% FCS and incubated for 24 hours at 37° C., 5% carbon dioxide. Test compounds were then added at the required concentration for 30 minutes. DNA damage was then induced adding hydrogen peroxide at the concentration of 0.1 mM for 15 minutes. Concentration curves were prepared in MEM/10% FCS from compound stocks in DMSO, and final DMSO concentration was 0.002% (v/v). Duplicate wells for each concentration point were prepared with a typical highest compound concentration of 20 μM and serial dilution 1:3. Plates were dried and fixed adding cold methanol-acetone (70:30) solution for 15 minutes at room temperature, fixing solution was aspired and wells were air dried for 5 minutes and then dehydrated in PBS. Non-specific binding sites were blocked by incubating wells for 30 minutes in PBS containing 5% (w/v) FBS 0.05% tween20. Wells were then incubated for 1 hour at room temperature in PBS containing anti PAR mouse monoclonal antibody (Anti-PAR, Mouse mAb 10H, Tulip Cat N° 1020) diluted 1:200 in blocking solution. After 3 washes in PBS, wells incubated in PBS (w/v) 5% FBS 0.05% Tween20 containing 2 μg/mL Cy2-conjugated Goat anti mouse secondary antibody (Amersham Pharmacia Biotech cat. N° PA 42002) (Absorption maximum 489 nm fluorescence maximum 506 nm) and 1 μg/mL DAPI (Absorption maximum 359 nm fluorescence maximum 461 nm) (4′,6-diamidino-2-phenyindole dilactate) (Sigma cat. N° D9564), a high sensitivity dye for nucleic acid staining. After washing further 3 times in PBS, cellular PAR immunoreactivity was assessed using the ArrayScan vTi instrument, with a Zeiss 10×0.5 N.A. objective, and applying the Cytotoxicity. V3 algorithm (Cellomics/Thermo Fisher) with a XF100 filter. At least 10 fields, corresponding to at least 900 cells, were read for each well.
X is the logarithm of concentration, IC50 is the response; IC50 starts at bottom and goes to top with a sigmoid shape.
Data set [3] deals with Capan-1 human pancreatic cancer tumors.
Experimental: Fragments of Capan-1 human pancreatic cancer tumors were implanted subcutaneously. […] Each group included seven animals. The treatment started one day after randomization. Compounds of formula (I) were administered by oral route as a methocel suspension. Tumor dimension was measured regularly by calipers during the experiments and tumor mass was calculated as described in Simeoni M. et al., Cancer Res 2004, 64, 1094-1101.
Temozolomide was administered by oral route at the dose of 50 mg/kg on days 3, 4, 5, 6, 7 and 8. Tumor growth and body weight were measured every 3 days. Tumor growth was assessed by caliper. The two diameters were recorded and the tumor weight was calculated according to the following formula: length (mm)×width^2/2. […] This delay (T−C value) was defined as the difference of time (in days) required for the treatment group (T) and the control group (C) tumors to reach a predetermined size (1 g). Toxicity was evaluated on the basis of body weight reduction and animal survival rate.
The mark [4] stands for this setting: temozolomide alone 50 mg/kg oral, days 3-8.

Chain of PARP-2 (Q9UGN5 whole entry): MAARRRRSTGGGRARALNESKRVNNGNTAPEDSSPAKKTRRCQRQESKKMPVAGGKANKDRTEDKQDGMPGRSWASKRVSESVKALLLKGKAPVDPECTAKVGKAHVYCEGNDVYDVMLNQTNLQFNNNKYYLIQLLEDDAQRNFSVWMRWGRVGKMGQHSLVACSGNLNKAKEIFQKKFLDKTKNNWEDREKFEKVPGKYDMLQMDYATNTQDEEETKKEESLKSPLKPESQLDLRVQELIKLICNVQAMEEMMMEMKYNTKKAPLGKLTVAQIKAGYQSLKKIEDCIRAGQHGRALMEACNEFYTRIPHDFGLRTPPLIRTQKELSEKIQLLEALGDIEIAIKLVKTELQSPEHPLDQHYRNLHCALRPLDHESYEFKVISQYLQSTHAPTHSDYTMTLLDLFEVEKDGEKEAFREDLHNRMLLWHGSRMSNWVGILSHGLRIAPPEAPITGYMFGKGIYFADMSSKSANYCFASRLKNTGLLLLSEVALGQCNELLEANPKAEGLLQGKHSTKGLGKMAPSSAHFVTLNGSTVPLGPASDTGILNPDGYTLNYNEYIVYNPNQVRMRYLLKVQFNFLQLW
Chain of PARP-1 (P09874 whole entry): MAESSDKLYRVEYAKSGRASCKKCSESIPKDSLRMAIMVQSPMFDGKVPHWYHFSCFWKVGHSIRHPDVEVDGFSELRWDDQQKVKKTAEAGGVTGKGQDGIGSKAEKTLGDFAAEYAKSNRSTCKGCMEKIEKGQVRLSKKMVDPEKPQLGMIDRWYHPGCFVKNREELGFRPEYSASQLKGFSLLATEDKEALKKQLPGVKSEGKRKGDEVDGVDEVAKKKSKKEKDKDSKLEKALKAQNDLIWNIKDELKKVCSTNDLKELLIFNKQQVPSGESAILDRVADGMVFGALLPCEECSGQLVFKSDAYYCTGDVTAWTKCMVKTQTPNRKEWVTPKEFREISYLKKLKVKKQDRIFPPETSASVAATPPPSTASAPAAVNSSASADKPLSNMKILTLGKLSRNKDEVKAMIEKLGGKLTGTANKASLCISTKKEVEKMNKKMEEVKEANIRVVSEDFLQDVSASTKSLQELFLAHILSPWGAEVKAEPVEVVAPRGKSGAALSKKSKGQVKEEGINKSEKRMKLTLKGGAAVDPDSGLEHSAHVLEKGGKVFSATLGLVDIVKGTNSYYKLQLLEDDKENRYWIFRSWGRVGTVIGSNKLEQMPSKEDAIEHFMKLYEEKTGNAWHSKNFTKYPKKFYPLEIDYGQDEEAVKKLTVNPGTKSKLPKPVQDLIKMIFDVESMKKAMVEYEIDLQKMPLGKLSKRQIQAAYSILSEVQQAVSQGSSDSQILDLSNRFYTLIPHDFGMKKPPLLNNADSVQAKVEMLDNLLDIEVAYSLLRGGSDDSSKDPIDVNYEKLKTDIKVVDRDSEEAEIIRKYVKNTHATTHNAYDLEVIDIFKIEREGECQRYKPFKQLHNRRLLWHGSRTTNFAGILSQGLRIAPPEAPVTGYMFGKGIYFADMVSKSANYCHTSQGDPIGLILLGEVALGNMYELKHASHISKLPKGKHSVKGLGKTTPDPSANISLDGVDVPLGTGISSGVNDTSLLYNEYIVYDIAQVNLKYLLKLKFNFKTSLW
Chain of PARP-3 (Q9Y6F1 whole entry): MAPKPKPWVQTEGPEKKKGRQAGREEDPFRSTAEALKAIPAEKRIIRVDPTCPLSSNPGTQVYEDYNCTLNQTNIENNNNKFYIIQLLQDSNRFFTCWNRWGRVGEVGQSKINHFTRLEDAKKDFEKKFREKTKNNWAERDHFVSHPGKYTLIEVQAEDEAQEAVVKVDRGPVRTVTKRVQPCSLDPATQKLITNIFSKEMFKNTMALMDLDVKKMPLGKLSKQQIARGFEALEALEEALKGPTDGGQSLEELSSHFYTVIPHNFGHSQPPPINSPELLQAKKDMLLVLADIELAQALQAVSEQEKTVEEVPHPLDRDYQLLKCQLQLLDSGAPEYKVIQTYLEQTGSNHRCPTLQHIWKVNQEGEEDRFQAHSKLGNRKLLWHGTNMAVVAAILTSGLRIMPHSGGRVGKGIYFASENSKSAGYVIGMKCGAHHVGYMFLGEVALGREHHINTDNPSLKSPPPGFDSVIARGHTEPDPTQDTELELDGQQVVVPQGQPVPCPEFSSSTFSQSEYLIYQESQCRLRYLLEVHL
Experimental for PARP-1: (§1) Affinity evaluation of the tested compounds and their selectivity with respect to the different PARP isoforms of interest was assessed in a displacement assay.
(§2) a) providing a reaction mixture containing:
(§3) the PARP protein isoform under investigation,
a compound of formula (IP):
(§4) wherein R11 is hydrogen or a methyl group, B is (CH2)n—NH group wherein n is 2 to 6; m is 0 or 1 and X^− is a counterion, and
serial dilutions of the test compound;
(§5) b) comparing the polarization signal generated in the absence of the test compound with the one generated in the presence of different concentrations of the test compound, and
(§6) c) evaluating the ability of the test compound to displace the compound of formula (IP) as defined above indicated from a decreased fluorescence polarization level.
(§7) The 5H-phenanthridin-6-one-derived probe (IP) was selected for its capability of binding to the PARP proteins, both encompassing full-length native proteins and fragment thereof.
(§8) The polarization signal can be measured, e.g., by a plate reader such as the Saphire2 (Tecan). Data analysis was performed, e.g., by using the Dynafit software. Displacement data were also fitted, e.g., by using Excel spreadsheet (Microsoft Inc. Seattle, USA) to a four parameter logistic model (4PL), or Hill-Slope model. The assay was used to test compounds of the present invention. […] Specific probes of formula (IP) used in the assay are: • P1. 9-Dimethylamino-11,11-dimethyl-1-(3-{methyl-[(6-oxo-5,6-dihydro-phenanthridin-2-ylcarbamoyl)-methyl]-carbamoyl}-propyl)-2,3,4,11-tetrahydro-naphtho[2,3-g]quinolinium trifluoroacetate; • P2. 9-Dimethylamino-11,11-dimethyl-1-[3-(3-{[(6-oxo-5,6-dihydro-phenanthridin-2-ylcarbamoyl)-methyl]-amino}-propylcarbamoyl)-propyl]-2,3,4,11-tetrahydro-naphtho[2,3-g]quinolinium trifluoroacetate; • P3. 9-Dimethylamino-11,11-dimethyl-1-[3-(6-{[(6-oxo-5,6-dihydro-phenanthridin-2-ylcarbamoyl)-methyl]-amino}-hexylcarbamoyl)-propyl]-2,3,4,11-tetrahydro-naphtho[2,3-g]quinolinium trifluoroacetate.
Experimental for PARP-2: as §1, §2, §3
a compound of formula (IP):
as §4
serial dilutions of the test compound;
as §5, §6, §7, §8
Experimental for PARP-3: as §1, §2, §3
a compound of formula (IP):
as §4
serial dilutions of the test compound;
as §5, §6, §7, §8

`Cn1c2cccc(C(N)=O)c2c(=O)n1C1CCN(CC2CC=CCC2)CC1` (centres unmarked) [Compound 65, 2-[1-(cyclohex-3-en-1-ylmethyl)piperidin-4-yl]-1-methyl-3-oxo-2,3-dihydro-1H-indazole-4-carboxamide]: in data set [1], the clearance amounted to 53.8 mL/min/kg, the Vd was found to be 3.4 L/kg, the AUC was 4.06 µM·h and the half-life is 1.16 h. In data set [1], the “C-max (oral)” value came out at 1.93 µM and the “F on AUC” value was found to be 50%. The DC50 on PARP-3 stood at 1.78 µM. In addition, the DC50 at PARP-2 turned out to be 4.19 µM.
For `NC(=O)c1cccc2[nH]n(C3CCN(Cc4cccs4)CC3)c(=O)c12` [Compound 62, 3-oxo-2-[1-(thiophen-2-ylmethyl)piperidin-4-yl]-2,3-dihydro-1H-indazole-4-carboxamide], the DC50 on PARP-1 was below 0.25 µM; at PARP-3 it was 0.46 µM; on PARP-2 it was above 10 µM. Besides, the Kd at PARP-1 came out at 0.022 µM. The IC50 in data set [2] was 0.07 µM.
In the case of `Cn1c2cccc(C(N)=O)c2c(=O)n1C1CCN(Cc2ccco2)CC1` [Compound 67, 2-[1-(furan-2-ylmethyl)piperidin-4-yl]-1-methyl-3-oxo-2,3-dihydro-1H-indazole-4-carboxamide], the DC50 at PARP-3 was found to be 2.56 µM; on PARP-2 it was 2.29 µM.
With `Cn1c2cccc(C(N)=O)c2c(=O)n1C1CCN(Cc2cccs2)CC1` [Compound 63, 1-methyl-3-oxo-2-[1-(thiophen-2-ylmethyl)piperidin-4-yl]-2,3-dihydro-1H-indazole-4-carboxamide], the DC50 at PARP-3 turned out to be 1.42 µM; on PARP-2, 3.56 µM.
Turning to `NC(=O)c1cccc2[nH]n(C3CCN(CC4CC=CCC4)CC3)c(=O)c12` (centres unmarked) [Compound 64, 2-[1-(cyclohex-3-en-1-ylmethyl)piperidin-4-yl]-3-oxo-2,3-dihydro-1H-indazole-4-carboxamide], the DC50 on PARP-3 and on PARP-2 was above 10 µM each time.
As to `Cn1c2cc(F)cc(C(N)=O)c2c(=O)n1C1CCN(C2CCCCC2)CC1` [Compound 22, 2-(1-cyclohexylpiperidin-4-yl)-6-fluoro-1-methyl-3-oxo-2,3-dihydro-1H-indazole-4-carboxamide], in data set [1], the clearance is 38.7 mL/min/kg, the Vd is 6.4 L/kg, the AUC was found to be 12.8 µM·h and the half-life was 2.25 h. Moreover, in data set [1], the “C-max (oral)” value turned out to be 4.72 µM and the “F on AUC” value was 150%. On PARP-3, the DC50 stood at 0.7 µM and the Kd is 0.27 µM. Also, at PARP-2, the DC50 amounted to 0.79 µM and the Kd worked out at 0.5 µM.
Take `CC(C)N1CCC(n2c(=O)c3c(C(N)=O)cccc3n2C)CC1` [Compound 14, 1-methyl-3-oxo-2-[1-(propan-2-yl)piperidin-4-yl]-2,3-dihydro-1H-indazole-4-carboxamide]: the DC50 at PARP-3 is above 10 µM. Also, at PARP-2, the DC50 is below 0.25 µM and the Kd is 0.03 µM.
`NC(=O)c1cccc2[nH]n(C3CCNCC3)c(=O)c12` [Compound 1, 3-oxo-2-(piperidin-4-yl)-2,3-dihydro-1H-indazole-4-carboxamide]: the DC50 at PARP-1 was below 0.25 µM; on PARP-3 it was 0.58 µM; at PARP-2, 1.5 µM. Also, the values for the Kd at PARP-1 and at PARP-2 were 0.08 µM and 0.78 µM, respectively.
As to `Cn1c2cc(F)cc(C(N)=O)c2c(=O)n1C1CCNCC1` [Compound 21, 6-fluoro-1-methyl-3-oxo-2-(piperidin-4-yl)-2,3-dihydro-1H-indazole-4-carboxamide], the figures for the DC50 at PARP-1, at PARP-3 and on PARP-2 were below 0.25 µM, 0.22 µM and below 0.25 µM, respectively. Further, the Kd at PARP-1 was below 0.01 µM; on PARP-3, 0.04 µM; on PARP-2, 0.07 µM.
As for `Cn1c2cccc(C(N)=O)c2c(=O)n1C1CCN(C2CCCCC2)CC1` [Compound 5, 2-(1-cyclohexylpiperidin-4-yl)-1-methyl-3-oxo-2,3-dihydro-1H-indazole-4-carboxamide], in data set [1], the clearance is 41 mL/min/kg, the Vd came out at 4.3 L/kg, the AUC worked out at 10.6 µM·h and the half-life is 1.89 h. In addition, in data set [1], the “C-max (oral)” value was found to be 4.77 µM and the “F on AUC” value was found to be 109%. For the same compound, at PARP-3, the DC50 worked out at 2.15 µM. In addition, at PARP-2, the DC50 worked out at 0.91 µM and the Kd is 0.54 µM.
As for `Cn1c2cccc(C(N)=O)c2c(=O)n1C1CCN(CC2CCCCC2)CC1` [Compound 33, 2-[1-(cyclohexylmethyl)piperidin-4-yl]-1-methyl-3-oxo-2,3-dihydro-1H-indazole-4-carboxamide], the figures for the DC50 on PARP-3 and at PARP-2 were 2.9 µM and above 10 µM, respectively.
`NC(=O)c1cccc2[nH]n(C3CCN(C4CCCCC4)CC3)c(=O)c12` [Compound 3, 2-(1-cyclohexylpiperidin-4-yl)-3-oxo-2,3-dihydro-1H-indazole-4-carboxamide]: in data set [1], the clearance was 17.8 mL/min/kg, the Vd stood at 1.3 L/kg, the AUC was determined as 14.3 µM·h and the half-life is 1.77 h. Further, in data set [1], the “C-max (oral)” value amounted to 5.6 µM and the “F on AUC” value stood at 67%. The DC50 on PARP-3 is above 10 µM. Also, the “T-C (days)” value in data set [3] (cpd 3 200 mg/kg oral days 1-12 + temozolomide 50 mg/kg oral days 3-8, time to reach 1 g) is listed as “superior”. Besides, on PARP-2, the DC50 was above 10 µM.
For `Cn1c2cccc(C(N)=O)c2c(=O)n1C1CCN(C2CCC2)CC1` [Compound 18, 2-(1-cyclobutylpiperidin-4-yl)-1-methyl-3-oxo-2,3-dihydro-1H-indazole-4-carboxamide], the results for the DC50 on PARP-3 and at PARP-2 were 2.88 µM and below 0.25 µM, respectively.
Taken in the same sequence, the figures for `NC(=O)c1cccc2[nH]n(C3CCN(C4CCC4)CC3)c(=O)c12` [Compound 16, 2-(1-cyclobutylpiperidin-4-yl)-3-oxo-2,3-dihydro-1H-indazole-4-carboxamide] were above 10 µM and 2.57 µM.
Regarding `Cn1c2cccc(C(N)=O)c2c(=O)n1C1CCN(C2CCCC2)CC1` [Compound 7, 2-(1-cyclopentylpiperidin-4-yl)-1-methyl-3-oxo-2,3-dihydro-1H-indazole-4-carboxamide], at PARP-3, the DC50 is 2.58 µM. On PARP-2, the DC50 was below 0.25 µM and the Kd came to 0.05 µM.
Take `NC(=O)c1cccc2[nH]n(C3CCN(CC4CCCCC4)CC3)c(=O)c12` [Compound 31, 2-[1-(cyclohexylmethyl)piperidin-4-yl]-3-oxo-2,3-dihydro-1H-indazole-4-carboxamide]: the DC50 on PARP-3 and at PARP-2 was above 10 µM throughout.
Turning to `Cn1nnc2c(C(N)=O)ncn2c1=O` [temozolomide], in data set [3] (setting [4]), the “BWL (%)” value was 2% and the “Max TGI (%)” value stood at 13%. Moreover, the Toxicity in data set [3] (temozolomide alone 50 mg/kg oral, days 3-8, seven animals per group) is on record as 0/7. Moreover, the “T-C” value in data set [3] (temozolomide alone 50 mg/kg oral, days 3-8, time to reach 1 g) turned out to be 1 days.
For `NC(=O)c1cc(F)cc2[nH]n(C3CCN(C4CCCCC4)CC3)c(=O)c12` [Compound 23, 2-(1-cyclohexylpiperidin-4-yl)-6-fluoro-3-oxo-2,3-dihydro-1H-indazole-4-carboxamide], the DC50 at PARP-3 is above 10 µM. Further, on PARP-2, the DC50 worked out at 5.94 µM and the Kd was 5 µM.
For the compound `NC(=O)c1cc(F)cc2[nH]n(C3CCNCC3)c(=O)c12` [Compound 20, 6-fluoro-3-oxo-2-(piperidin-4-yl)-2,3-dihydro-1H-indazole-4-carboxamide], the results for the DC50 at PARP-1, at PARP-3 and at PARP-2 were below 0.25 µM, 0.25 µM and 0.5 µM, respectively. In addition, the Kd is below 0.01 µM on PARP-1, 0.05 µM at PARP-3 and 0.3 µM at PARP-2.
On to `Cn1c2cccc(C(N)=O)c2c(=O)n1C1CCNCC1` [Compound 9, 1-methyl-3-oxo-2-(piperidin-4-yl)-2,3-dihydro-1H-indazole-4-carboxamide], for which the DC50 at PARP-1 was below 0.25 µM; at PARP-3, 0.45 µM; at PARP-2, below 0.25 µM. Besides, the Kd at PARP-1 was found to be 0.014 µM; on PARP-2, 0.14 µM. For the same compound, the IC50 in data set [2] is 0.05 µM.
With `CN1CCC(n2[nH]c3cccc(C(N)=O)c3c2=O)CC1` [Compound 8, 2-(1-methylpiperidin-4yl)-3-oxo-2,3-dihydro-1H-indazole-4-carboxamide], the DC50 was below 0.25 µM on PARP-1, 2.75 µM at PARP-3 and below 0.25 µM at PARP-2. The Kd at PARP-1 turned out to be 0.14 µM; at PARP-2 it was 0.04 µM. Moreover, the IC50 in data set [2] stood at 0.6 µM.
As to `NC(=O)c1cccc2[nH]n(C3CCN(C4CCCC4)CC3)c(=O)c12` [Compound 2, 2-(1-cyclopentylpiperidin-4-yl)-3-oxo-2,3-dihydro-1H-indazole-4-carboxamide], the DC50 on PARP-3 is above 10 µM. Also, on PARP-2, the DC50 was 2 µM and the Kd was 1.49 µM.
Consider `NC(=O)c1cccc2[nH]n(C3CCN(C4CCC(F)(F)CC4)CC3)c(=O)c12` [Compound 4, 2-[1-(4,4-difluorocyclohexyl)piperidin-4-yl]-3-oxo-2,3-dihydro-1H-indazole-4-carboxamide], for which the DC50 on PARP-3 and on PARP-2 was above 10 µM throughout.
Take `NC(=O)c1cccc2[nH]n(C3CCN(Cc4ccco4)CC3)c(=O)c12` [Compound 66, 2-[1-(furan-2-ylmethyl)piperidin-4-yl]-3-oxo-2,3-dihydro-1H-indazole-4-carboxamide]: the DC50 was 0.58 µM on PARP-3 and above 10 µM at PARP-2.
